The results in this text go back to PubChem BioAssay (NCI).

Structures are written as SMILES. Values joined by “and” are separate entries in the source; they are usually repeats but may differ in a detail not shown here. Equal values may be shown once.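 Cells were grown in 96-well plates and exposed to each compound for 48 hours at five concentrations; endpoints were interpolated linearly between bracketing concentrations, or set to the highest concentration if not reached. Here, GI50 denotes the concentration required for 50% inhibition of growth. TGI denotes the concentration required for complete inhibition of growth.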

Test in all cases: inhibition of tumour cell growth, NCI panel, 48 h
In assay [1] the test system is HCC-2998 colon.
For assay [2], the system named is A549 NSCLC.
Assay [3] concerns SK-MEL-5 melanoma.
In assay [4] the test system is RPMI-8226 leukemia.
The subject of assay [5] is CAKI-1 renal.
The test system of assay [6] is SK-OV-3 ovarian.
In assay [7] the test system is PC-3 prostate.
The subject of assay [8] is COLO 205 colon.
In assay [9] the test system is HOP-92 NSCLC.
The subject of assay [10] is OVCAR-4 ovarian.

With `COc1cc2c(/C=N\N=C(N)N)c(Cl)[nH]c2cc1C`, the GI50 in assay [1] is 2.5 µM; in assay [2], 18.6 µM; in assay [3], 5.08 µM; in assay [4], 10.5 µM; in assay [5], 17 µM; in assay [6], 9.03 µM. For the same compound, the values for the GI50 in [7] and in assay [8] were 6.54 µM and 2.67 µM, respectively. In addition, the TGI was found to be 5.67 µM in assay [1]; 37.3 µM in assay [2]; 19 µM in [3]; 25 µM in assay [4]; 32.7 µM in [5]; 24.1 µM in assay [6]. Further, the TGI was 19.5 µM in assay [7] and 8.82 µM in [8].
For `COc1cc2c(cc1OC)C13CCN4C=C5CCOC6CC(=O)N2C1C6C5CC43` (stereo unspecified), the TGI in assay [9], in [2], in assay [10], in assay [3], in assay [4] and in [5] was > 100 µM throughout. Further, the TGI in [6], in assay [7] and in assay [8] was > 100 µM in each case.
`O=C(c1ccc2ccccc2c1O)N1CCCCC1`: the TGI in [9] was > 100 µM; in assay [1], > 100 µM; in [10], > 100 µM; in [3] it was > 100 µM; in assay [4], 95.9 µM; in [5], > 100 µM. Moreover, the TGI in [6], in assay [7] and in assay [8] was > 100 µM in each case.
Turning to `CCOc1ccccc1NC(=O)CCC(=O)OC`, the TGI in assay [9] is > 100 µM; in [1], > 100 µM; in [2] it was > 100 µM; in assay [10], > 100 µM; in assay [3], > 100 µM; in assay [4], > 71.3 µM. Also, the TGI in assay [5], in [6] and in [8] was > 100 µM in each case.
Turning to `O=C(CC1=Nc2nnc(-c3nnc4n3C(=O)C(CC(=O)c3cccnc3)=N4)n2C1=O)c1cccnc1`, the TGI in assay [9], in [1], in assay [2], in assay [10], in [3] and in [4] was > 100 µM in each case. Also, the TGI in [5], in assay [6] and in [8] was > 100 µM each time.
On to `Nc1ncnc2c1ncn2C1OC(COP(=O)(O)CP(=O)(O)O)C(O)C1O` (stereo unspecified), for which the TGI in assay [1], in assay [2], in assay [3], in [4], in [5] and in assay [6] was > 100 µM throughout. Further, the TGI in assay [7] and in assay [8] was > 100 µM throughout.
For `O=C(c1ccccc1)c1c(NCC(O)CN2CCCC2)n(Cc2ccccc2)c(=O)n(Cc2ccccc2)c1=O` (stereo unspecified), the GI50 is 20.5 µM in assay [1]; 32.3 µM in assay [2]; 23.9 µM in [10]; 12.5 µM in assay [3]; 19.3 µM in assay [4]; 24.3 µM in assay [5]. Further, the GI50 was 34 µM in assay [6], 17.5 µM in assay [7] and 16.2 µM in [8]. Also, the TGI in [1] was 36.5 µM; in [2] it was > 100 µM; in assay [10] it was 57.1 µM; in assay [3], 25 µM; in assay [4] it was 48.4 µM; in assay [5], 59 µM. The TGI is > 100 µM in assay [6], 36.6 µM in [7] and 31.2 µM in assay [8].
Regarding `CCSc1nnc2c(-c3ccccc3)n[nH]c2n1`, the TGI in assay [9], in [2], in assay [10], in assay [3], in assay [4] and in assay [5] was > 100 µM each time. For the same compound, the TGI in [6], in [7] and in [8] was > 100 µM in each case.
Consider `O=[As](O)(O)c1ccc(NCc2ccccc2)cc1`, for which the TGI in assay [9], in assay [2], in [10], in assay [3], in [4] and in assay [5] was > 100 µM throughout. Besides, the TGI in assay [7] and in assay [8] was > 100 µM throughout.
Take `CN1CCc2cc3c(cc2C1O)OCO3` (stereo unspecified): the GI50 in [9] was 20.8 µM and > 100 µM; in [1], 18.8 µM and > 100 µM; in [2], 15.9 µM and > 100 µM; in [5] it was 14.8 µM and > 100 µM; in [6] it was 17.5 µM and > 100 µM; in assay [7], 17 µM and > 100 µM. For the same compound, the GI50 in assay [8] was 13.5 µM and > 100 µM. For the same compound, the TGI in assay [9] was 39 µM and > 100 µM; in [1], 36.9 µM and > 100 µM; in assay [2] it was 31.6 µM and > 100 µM; in [10] it was 13.7 µM and > 100 µM; in assay [4], > 100 µM; in assay [5] it was 30.6 µM and > 100 µM. Moreover, the TGI in assay [6] is 31.7 µM and > 100 µM; in [7], 42.7 µM and > 100 µM; in assay [8], 31.8 µM and > 100 µM.
As to `Cc1[nH]ncc1-c1cc2nc(C3CC4CCN3CC4)[nH]c(=O)c2s1` (stereo unspecified), the GI50 in assay [9] is 5.5 µM; in assay [1], 7.09 µM; in assay [2] it was 2.67 µM; in assay [10], 9.68 µM; in assay [3], 2.77 µM; in assay [4], 18.2 µM. The values for the GI50 in assay [5], in assay [6] and in assay [7] were 2.43 µM, 14.5 µM and 4.13 µM, respectively. In addition, the TGI is > 100 µM in [9]; > 100 µM in assay [1]; > 100 µM in assay [2]; > 100 µM in assay [10]; 52.9 µM in assay [3]; > 100 µM in assay [4]. The TGI in assay [5], in assay [6] and in assay [7] was > 100 µM each time.
With `COc1cc(-c2nn3c(/C=C4/C(=O)Nc5ccccc54)c(-c4ccc(C)cc4)nc3s2)cc(OC)c1OC`, the GI50 in assay [9] is 0.42 µM; in assay [1], > 100 µM; in assay [2] it was 2.12 µM; in assay [5], 15.4 µM; in assay [6], 15.2 µM; in assay [7] it was 81.1 µM. For the same compound, the TGI was 8.99 µM in [9]; > 100 µM in [1]; > 100 µM in assay [2]; > 100 µM in [5]; 39.7 µM in [6]; > 100 µM in [7].
